What follows are compounds tested against T1, human chemokine receptor 2 isoform B (Homo sapiens, UniProt P41597) (assay: Calcium mobilization assay (FLIPR, antagonist activity against MCP-1)). Settings: Ca mobilisation assay, CHOK1-CCR2B-A5 cells, inhibition of calcium increase induced by 20 nM MCP-1.
T1 construct: host or cells: CHOK1-CCR2B-A5 cells (CHO-K1)
T1 sequence (P41597 1-360 isoform P41597-2): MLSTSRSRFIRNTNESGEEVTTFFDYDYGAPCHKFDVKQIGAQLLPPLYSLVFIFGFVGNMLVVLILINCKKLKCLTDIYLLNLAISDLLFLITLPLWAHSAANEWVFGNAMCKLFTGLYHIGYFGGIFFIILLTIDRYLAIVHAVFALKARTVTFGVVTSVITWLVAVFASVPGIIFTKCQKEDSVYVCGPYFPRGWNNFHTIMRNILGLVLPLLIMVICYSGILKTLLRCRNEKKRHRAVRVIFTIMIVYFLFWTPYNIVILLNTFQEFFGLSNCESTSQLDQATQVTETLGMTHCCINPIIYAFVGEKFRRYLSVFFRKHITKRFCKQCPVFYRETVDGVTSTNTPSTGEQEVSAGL
Type: cell-based
Procedure, shortened: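 CHOK1 cells stably overexpressing human CCR2B, loaded with 4 μM Fluo-4 for 2 h at 30° C, compounds added and agonist signal read by FLIPR for 80 s. After 20-30 min at 30° C, 20 nM MCP-1 was added and fluorescence read again. IC50 is 50% inhibition of specific calcium increase (max minus basal).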

SMILES | IC50 [µM]
C[C@H]1C(=O)N(C[C@@H](O)CC(=O)N2CCC3(CC3)[C@H](O)C2)CCN1C(=O)Nc1ccc(C(F)(F)F)c(C(F)(F)F)c1 [Example 48, (S)-4-[(S)-2-Hydroxy-4-((S)-4-hydroxy-6-aza-spiro[2.5]oct-6-yl)-4-oxo-butyl]-2-methyl-3-oxo-piperazine-1-carboxylic acid (3,4-bis-trifluoromethyl-phenyl)-amide] | 0.0024
C[C@H]1C(=O)N(C[C@H](O)CC(=O)N2CCC3(CC3)[C@H](O)C2)CCN1C(=O)Nc1ccc(C(F)(F)F)c(C(F)(F)F)c1 [Example 49, (S)-4-[(R)-2-hydroxy-4-((S)-4-hydroxy-6-aza-spiro[2.5]oct-6-yl)-4-oxo-butyl]-2-methyl-3-oxo-piperazine-1-carboxylic acid (3,4-bis-trifluoromethyl-phenyl)-amide] | 0.0058
C[C@H]1C(=O)N(CCC(C)(C)C(=O)N2CCC3(CC3)[C@H](O)C2)CCN1C(=O)Nc1ccc(C(F)(F)F)c(Cl)c1 [Example 50, (S)-4-[4-((S)-4-Hydroxy-6-aza-spiro[2.5]oct-6-yl)-3,3-dimethyl-4-oxo-butyl]-2-methyl-3-oxo-piperazine-1-carboxylic acid (3-chloro-4-trifluoromethyl-phenyl)-amide] | 1.14
C[C@H]1C(=O)N(CCC(C)(C)C(=O)N2CCC3(CC3)[C@H](O)C2)CCN1C(=O)Nc1ccc(OC(F)(F)F)c(Cl)c1 [Example 51, (S)-4-[4-((S)-4-Hydroxy-6-aza-spiro[2.5]oct-6-yl)-3,3-dimethyl-4-oxo-butyl]-2-methyl-3-oxo-piperazine-1-carboxylic acid (3-chloro-4-trifluoromethoxy-phenyl)-amide] | 0.75

Next, values leading:

IC50 [µM] | SMILES
0.738 | COC(=O)[C@H](CCC(=O)N1CCC2(CC2)[C@H](O)C1)N1CCN(C(=O)Nc2ccc(C(F)(F)F)c(Cl)c2)[C@@H](C)C1=O [Example 52, (S)-2-[(S)-4-(3-Chloro-4-trifluoromethyl-phenylcarbamoyl)-3-methyl-2-oxo-piperazin-1-yl]-5-((S)-4-hydroxy-6-aza-spiro[2.5]oct-6-yl)-5-oxo-pentanoic acid methyl ester]
0.0043 | C[C@H]1C(=O)N([C@H](CO)CCC(=O)N2CCC3(CC3)[C@H](O)C2)CCN1C(=O)Nc1ccc(C(F)(F)F)c(Cl)c1 [Example 53, (S)-4-[(S)-4-((S)-4-Hydroxy-6-aza-spiro[2.5]oct-6-yl)-1-hydroxymethyl-4-oxo-butyl]-2-methyl-3-oxo-piperazine-1-carboxylic acid (3-chloro-4-trifluoromethyl-phenyl)-amide]
0.216 | COC(=O)[C@H](CCC(=O)N1CCC2(CC2)[C@H](O)C1)N1CCN(C(=O)Nc2ccc(OC(F)(F)F)c(Cl)c2)[C@@H](C)C1=O [Example 54, (S)-2-[(S)-4-(3-Chloro-4-trifluoromethoxy-phenylcarbamoyl)-3-methyl-2-oxo-piperazin-1-yl]-5-((S)-4-hydroxy-6-aza-spiro[2.5]oct-6-yl)-5-oxo-pentanoic acid methyl ester]
0.0018 | C[C@H]1C(=O)N([C@H](CO)CCC(=O)N2CCC3(CC3)[C@H](O)C2)CCN1C(=O)Nc1ccc(OC(F)(F)F)c(Cl)c1 [Example 55, (S)-4-[(S)-4-((S)-4-Hydroxy-6-aza-spiro[2.5]oct-6-yl)-1-hydroxymethyl-4-oxo-butyl]-2-methyl-3-oxo-piperazine-1-carboxylic acid (3-chloro-4-trifluoromethoxy-phenyl)-amide]
0.387 | C[C@H]1C(=O)N([C@@H](CCC(=O)N2CCC3(CC3)[C@H](O)C2)C(=O)O)CCN1C(=O)Nc1ccc(OC(F)(F)F)c(Cl)c1 [Example 56, Lithium; (S)-2-[(S)-4-(3-chloro-4-trifluoromethoxy-phenylcarbamoyl)-3-methyl-2-oxo-piperazin-1-yl]-5-((S)-4-hydroxy-6-aza-spiro[2.5]oct-6-yl)-5-oxo-pentanoate]

From patent US8445674B2, “Heterocyclyl compounds” (Hoffmann-La Roche Inc, priority 2009, dated 2013)
